Data as given in doi:10.1101/2021.06.16.448769v1 (bioRxiv, 2021).
Where two headings read alike, the source gives them in different places. Each block holds one compound with its values, some of them ahead of it. Bridge positions count the residues as written; N and C are the ends. Square brackets hold non-standard residues; d marks the D form. Ends that are not written are not given here. Peptide text beside a SMILES is read from it. * marks the point of attachment. Cam = NC(=O)C*

Experiments:
[1] = target: human C5 (Homo sapiens, UniProt P01031); experiment: SPR multi-cycle kinetics, binding to human C5; settings: for fold change in KD relative to parent: relative to the unmodified parent knob domain, Figure 5H
Sequence of human C5 (P01031 19-673 limits assumed): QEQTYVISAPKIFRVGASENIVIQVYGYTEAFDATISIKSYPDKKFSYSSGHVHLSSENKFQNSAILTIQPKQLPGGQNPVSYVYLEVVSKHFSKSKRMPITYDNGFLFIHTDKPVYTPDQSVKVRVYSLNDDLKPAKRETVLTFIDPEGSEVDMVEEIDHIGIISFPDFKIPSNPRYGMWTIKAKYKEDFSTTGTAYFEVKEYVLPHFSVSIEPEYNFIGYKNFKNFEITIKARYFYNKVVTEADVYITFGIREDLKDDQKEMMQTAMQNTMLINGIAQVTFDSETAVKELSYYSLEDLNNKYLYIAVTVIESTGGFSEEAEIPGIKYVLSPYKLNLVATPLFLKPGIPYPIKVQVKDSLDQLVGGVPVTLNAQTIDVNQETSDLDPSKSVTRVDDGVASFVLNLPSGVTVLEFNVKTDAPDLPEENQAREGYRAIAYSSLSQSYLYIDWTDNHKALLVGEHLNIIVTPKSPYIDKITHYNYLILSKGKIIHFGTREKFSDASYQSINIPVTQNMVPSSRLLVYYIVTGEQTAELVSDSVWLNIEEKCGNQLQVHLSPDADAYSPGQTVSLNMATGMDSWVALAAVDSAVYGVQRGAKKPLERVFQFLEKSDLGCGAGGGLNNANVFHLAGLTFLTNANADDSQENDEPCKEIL
Sequence of human C5 (P01031 678-1676 limits assumed): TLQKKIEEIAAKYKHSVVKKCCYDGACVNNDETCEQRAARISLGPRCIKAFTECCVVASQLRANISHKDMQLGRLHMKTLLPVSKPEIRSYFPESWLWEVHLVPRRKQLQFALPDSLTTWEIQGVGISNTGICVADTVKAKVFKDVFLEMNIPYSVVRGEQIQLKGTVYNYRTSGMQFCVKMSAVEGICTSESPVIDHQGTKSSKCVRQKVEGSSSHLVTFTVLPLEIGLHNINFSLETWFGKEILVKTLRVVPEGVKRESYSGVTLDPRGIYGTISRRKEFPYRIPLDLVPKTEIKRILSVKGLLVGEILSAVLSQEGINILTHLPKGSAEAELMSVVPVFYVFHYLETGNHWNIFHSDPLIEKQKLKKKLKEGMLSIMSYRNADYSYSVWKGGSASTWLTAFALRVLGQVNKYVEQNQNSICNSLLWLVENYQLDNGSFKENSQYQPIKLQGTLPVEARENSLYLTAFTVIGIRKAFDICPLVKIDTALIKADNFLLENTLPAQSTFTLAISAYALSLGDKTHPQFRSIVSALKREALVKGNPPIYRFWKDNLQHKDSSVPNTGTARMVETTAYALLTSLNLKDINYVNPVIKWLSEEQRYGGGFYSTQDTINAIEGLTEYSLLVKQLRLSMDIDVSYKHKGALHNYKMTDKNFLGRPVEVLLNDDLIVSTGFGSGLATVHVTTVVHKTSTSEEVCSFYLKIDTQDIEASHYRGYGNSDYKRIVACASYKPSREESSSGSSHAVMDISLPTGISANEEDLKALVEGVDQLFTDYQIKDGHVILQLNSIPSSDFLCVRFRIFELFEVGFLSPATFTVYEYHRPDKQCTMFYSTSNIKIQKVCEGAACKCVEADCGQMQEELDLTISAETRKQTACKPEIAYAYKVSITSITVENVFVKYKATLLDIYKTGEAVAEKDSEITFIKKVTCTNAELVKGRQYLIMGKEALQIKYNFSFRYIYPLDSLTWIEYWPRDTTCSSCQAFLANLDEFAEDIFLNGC

[2] = test system: C5 activation (C5b-6), alternative pathway; experiment: Alternative pathway; format: biochemical
[3] = KD, peptide after reduction and capping of cysteines with iodoacetamide (IAM)
[4] = KD, reduced and IAM-capped knob domains, S4
[5] = reduced and IAM-capped knob domains, S4

Compound: CC[C@H](C)[C@H](NC(=O)[C@H](C)NC(=O)[C@@H](NC(=O)CNC(=O)[C@H](CSCC(N)=O)NC(=O)[C@H](CCC(=O)O)NC(=O)[C@H](CO)NC(=O)[C@H](Cc1c[nH]c2ccccc12)NC(=O)CNC(=O)[C@H](CCC(=O)O)NC(=O)[C@@H]1CCCN1C(=O)[C@H](CSCC(N)=O)NC(=O)[C@@H](N)[C@@H](C)O)C(C)C)C(=O)N[C@@H](Cc1ccc(O)cc1)C(=O)NCC(=O)N[C@@H](Cc1ccc(O)cc1)C(=O)N[C@@H](CCC(=O)O)C(=O)N[C@@H](CSCC(N)=O)C(=O)NCC(=O)N[C@@H](CCCNC(=N)N)C(=O)N[C@@H](Cc1c[nH]c2ccccc12)C(=O)NCC(=O)N[C@@H](CSCC(N)=O)C(=O)NCC(=O)N[C@@H](Cc1c[nH]cn1)C(=O)N[C@@H](Cc1ccccc1)C(=O)N[C@@H](CC(C)C)C(=O)N[C@@H](CC(N)=O)C(=O)N[C@@H](CO)C(=O)NCC(=O)N1CCC[C@H]1C(=O)N[C@@H](CC(N)=O)C(=O)N[C@H](C(=O)N[C@@H](CO)C(=O)N1CCC[C@H]1C(=O)N[C@@H](Cc1ccc(O)cc1)C(=O)N[C@H](C(=O)N[C@@H](CO)C(=O)N[C@H](C(=O)O)[C@@H](C)O)C(C)C)[C@@H](C)CC [K92 chemFE reduced and capped] (H-TC(Cam)PEGWSEC(Cam)GVAIYGYEC(Cam)GRWGC(Cam)GHFLNSGPNISPYVST-OH; N-terminus assumed)
Kd [1, 3]: 2000 nM
Kd [1, 4]: 2350 nM
koff [1, 5]: 0.000172 s⁻¹
kon [1, 5]: 72.9 M⁻¹ s⁻¹

Compound: CC[C@H](C)[C@@H]1NC(=O)[C@H](CCCCNC(C)=O)NC(=O)[C@H](C(C)C)NC(=O)CNC(=O)[C@@H]2CSSC[C@@H](C(=O)NCC(=O)N[C@@H](Cc3c[nH]cn3)C(=O)N[C@@H](Cc3ccccc3)C(=O)N[C@@H](CC(C)C)C(=O)N[C@@H](CC(N)=O)C(=O)N[C@@H](CO)C(=O)NCC(=O)N3CCC[C@H]3C(=O)N[C@@H](CC(N)=O)C(=O)N[C@H](C(=O)N[C@@H](CO)C(=O)N3CCC[C@H]3C(=O)N[C@@H](Cc3ccc(O)cc3)C(=O)N[C@H](C(=O)N[C@@H](CO)C(=O)N[C@H](C(=O)O)[C@@H](C)O)C(C)C)[C@@H](C)CC)NC(=O)CNC(=O)[C@H](Cc3c[nH]c4ccccc34)NC(=O)[C@H](CCCNC(=N)N)NC(=O)CNC(=O)[C@H](CSSC[C@H](NC(=O)[C@@H](N)[C@@H](C)O)C(=O)N3CCC[C@H]3C(=O)N[C@@H](CCC(=O)O)C(=O)NCC(=O)N[C@@H](Cc3c[nH]c4ccccc34)C(=O)N[C@@H](CO)C(=O)N[C@@H](CCC(=O)O)C(=O)N2)NC(=O)[C@H](CCC(=O)O)NC(=O)[C@H](Cc2ccc(O)cc2)NC(=O)CNC(=O)[C@H](Cc2ccc(O)cc2)NC1=O [K92chemFE A12K(Ac)] (H-TCPEGWSECGVK(Ac)IYGYECGRWGCGHFLNSGPNISPYVST-OH; disulfide 2-18, 9-23; N-terminus and C-terminus assumed)
effect in AP ELISA (in words) [2]: two-fold increase in efficacy
fold change in KD relative to parent [1]: 130.2

Compound: CC[C@H](C)[C@@H]1NC(=O)[C@H](CC(N)=O)NC(=O)[C@H](C(C)C)NC(=O)CNC(=O)[C@@H]2CSSC[C@@H](C(=O)NCC(=O)N[C@@H](Cc3c[nH]cn3)C(=O)N[C@@H](Cc3ccccc3)C(=O)N[C@@H](CC(C)C)C(=O)N[C@@H](CC(N)=O)C(=O)N[C@@H](CO)C(=O)NCC(=O)N3CCC[C@H]3C(=O)N[C@@H](CC(N)=O)C(=O)N[C@H](C(=O)N[C@@H](CO)C(=O)N3CCC[C@H]3C(=O)N[C@@H](Cc3ccc(O)cc3)C(=O)N[C@H](C(=O)N[C@@H](CO)C(=O)N[C@H](C(=O)O)[C@@H](C)O)C(C)C)[C@@H](C)CC)NC(=O)CNC(=O)[C@H](Cc3c[nH]c4ccccc34)NC(=O)[C@H](CCCNC(=N)N)NC(=O)CNC(=O)[C@H](CSSC[C@H](NC(=O)[C@@H](N)[C@@H](C)O)C(=O)N3CCC[C@H]3C(=O)N[C@@H](CCC(=O)O)C(=O)NCC(=O)N[C@@H](Cc3c[nH]c4ccccc34)C(=O)N[C@@H](CO)C(=O)N[C@@H](CCC(=O)O)C(=O)N2)NC(=O)[C@H](CCC(=O)O)NC(=O)[C@H](Cc2ccc(O)cc2)NC(=O)CNC(=O)[C@H](Cc2ccc(O)cc2)NC1=O [K92chemFE A12N] (H-TCPEGWSECGVNIYGYECGRWGCGHFLNSGPNISPYVST-OH; disulfide 2-18, 9-23; N-terminus and C-terminus assumed)
fold change in KD relative to parent [1]: 4.6

Compound: CC[C@H](C)[C@H](NC(=O)[C@H](CC(N)=O)NC(=O)[C@@H]1CCCN1C(=O)CNC(=O)[C@H](CO)NC(=O)[C@H](CC(N)=O)NC(=O)[C@H](CC(C)C)NC(=O)[C@H](Cc1ccccc1)NC(=O)[C@H](Cc1c[nH]cn1)NC(=O)CNC(=O)[C@@H]1CSSC[C@@H]2NC(=O)[C@H](CCC(=O)O)NC(=O)[C@H](CO)NC(=O)[C@H](Cc3c[nH]c4ccccc34)NC(=O)CNC(=O)[C@H](CCC(=O)O)NC(=O)[C@@H]3CCCN3C(=O)[C@@H](NC(=O)[C@@H](N)[C@@H](C)O)CSSC[C@H](NC(=O)[C@H](CCC(=O)O)NC(=O)[C@H](Cc3ccc(O)cc3)NC(=O)CNC(=O)[C@H](Cc3ccc(O)cc3)NC(=O)[C@H]([C@@H](C)CC)NC(=O)[C@@H](Cc3c[nH]c4ccccc34)NC(=O)[C@H](C(C)C)NC(=O)CNC2=O)C(=O)NCC(=O)N[C@@H](CCCNC(=N)N)C(=O)N[C@@H](Cc2c[nH]c3ccccc23)C(=O)NCC(=O)N1)C(=O)N[C@@H](CO)C(=O)N1CCC[C@H]1C(=O)N[C@@H](Cc1ccc(O)cc1)C(=O)N[C@H](C(=O)N[C@@H](CO)C(=O)N[C@H](C(=O)O)[C@@H](C)O)C(C)C [K92chemFE A12d-W] (H-TCPEGWSECGV[dW]IYGYECGRWGCGHFLNSGPNISPYVST-OH; disulfide 2-18, 9-23; N-terminus and C-terminus assumed)
fold change in KD relative to parent [1]: 165.6

Compound: CC[C@H](C)[C@@H]1NC(=O)[C@H](C)NC(=O)[C@H](C(C)C)NC(=O)CNC(=O)[C@@H]2CSSC[C@@H]3NC(=O)CNC(=O)[C@H](Cc4c[nH]c5ccccc45)NC(=O)[C@H](CCCNC(=N)N)NC(=O)CNC(=O)[C@H](CSSC[C@H](NC(=O)[C@H]([C@@H](C)O)NC(=O)[C@H](Cc4ccc(O)cc4)NC(=O)[C@@H]4CCCN4C(=O)[C@H](CO)NC(=O)[C@H]([C@@H](C)CC)NC(=O)[C@H](CC(N)=O)NC(=O)[C@@H]4CCCN4C(=O)CNC(=O)[C@H](CO)NC(=O)[C@H](CC(N)=O)NC(=O)[C@H](CC(C)C)NC(=O)[C@H](Cc4ccccc4)NC(=O)[C@H](Cc4c[nH]cn4)NC(=O)CNC3=O)C(=O)N3CCC[C@H]3C(=O)N[C@@H](CCC(=O)O)C(=O)NCC(=O)N[C@@H](Cc3c[nH]c4ccccc34)C(=O)N[C@@H](CO)C(=O)N[C@@H](CCC(=O)O)C(=O)N2)NC(=O)[C@H](CCC(=O)O)NC(=O)[C@H](Cc2ccc(O)cc2)NC(=O)CNC(=O)[C@H](Cc2ccc(O)cc2)NC1=O [K92chemFE^cyclic] (cyclo(AIYGYECGRWGCGHFLNSGPNISPYTCPEGWSECGV); disulfide 7-27, 12-34)
fold change in KD relative to parent [1]: 39.7

Compound: CSCC[C@@H]1NC(=O)[C@@H]2CCCN2C(=O)[C@@H]2CSSC[C@H](NC(=O)[C@H](CCCNC(=N)N)NC(=O)CNC(=O)[C@H](C(C)C)NC1=O)C(=O)N[C@@H](CC(C)C)C(=O)N[C@@H](C)C(=O)N1CCC[C@H]1C(=O)N[C@@H](CCCNC(=N)N)C(=O)N[C@@H](CC(N)=O)C(=O)N[C@@H]([C@@H](C)O)C(=O)N[C@@H](CO)C(=O)N[C@H]1CSSC[C@H](NC(=O)[C@H](Cc3ccccc3)NC(=O)[C@H](CC(=O)O)NC(=O)[C@H](CC(=O)O)NC(=O)[C@H](Cc3c[nH]c4ccccc34)NC(=O)[C@H](CO)NC(=O)[C@H](CCCNC(=N)N)NC(=O)[C@H](Cc3ccc(O)cc3)NC(=O)[C@H](CO)NC(=O)[C@H](Cc3ccccc3)NC(=O)CNC(=O)[C@H](CC(=O)O)NC(=O)[C@@H]3CCCN3C1=O)C(=O)N2 [K149chemFE^cyclic] (cyclo(APRNTSCPDGFSYRSWDDFCCPMVGRCL); disulfide 7-20, 21-27 (inferred); ring closure inferred)
fold change in KD relative to parent [1]: 0.2

Kd ([1]; read-out: mean KD, SPR multi-cycle kinetics, mean of n=3): 7.3 nM
Compound: CSCC[C@@H]1NC(=O)[C@@H]2CCCN2C(=O)[C@@H](NC(=O)[C@@H]2CSSC[C@H](NC(=O)[C@@H](N)CO)C(=O)N3CCC[C@H]3C(=O)N[C@@H](CC(=O)O)C(=O)NCC(=O)N[C@@H](Cc3ccccc3)C(=O)N[C@@H](CO)C(=O)N[C@@H](Cc3ccc(O)cc3)C(=O)N[C@@H](CCCNC(=N)N)C(=O)N[C@@H](CO)C(=O)N[C@@H](Cc3c[nH]c4ccccc34)C(=O)N[C@@H](CC(=O)O)C(=O)N[C@@H](CC(=O)O)C(=O)N[C@@H](Cc3ccccc3)C(=O)N2)CSSC[C@@H](C(=O)N[C@@H](CC(C)C)C(=O)N[C@@H](C)C(=O)N2CCC[C@H]2C(=O)N[C@@H](CCCNC(=N)N)C(=O)N[C@@H](CC(N)=O)C(=O)O)NC(=O)[C@H](CCCNC(=N)N)NC(=O)CNC(=O)[C@H](C(C)C)NC1=O [K149chemSD-A] (H-SCPDGFSYRSWDDFCCPMVGRCLAPRN-OH; disulfide 2-15, 16-22; N-terminus assumed)

Compound: GC(Cam)PPGYKSGVDC(Cam)SPGSEC(Cam)KWGC(Cam)YAVDGRRYGGYGADSGVGS-OH [K57chemFE reduced and capped]
Kd [1, 3]: 76 nM
Kd [1, 4]: 75.6 nM
koff [1, 5]: 0.000358 s⁻¹
kon [1, 5]: 4740 M⁻¹ s⁻¹

Compound: cyclo(ADSGVGSTGCPPGYKSGVDCSPGSECKWGCYAVDGRRYGGYG) (disulfide 10-26, 20-30 (inferred); ring closure inferred) [K57chemFE^cyclic]
fold change in KD relative to parent [1]: 0.8
